In data set [1] the test system is EOL-1 (acute myeloid eosinophilic leukemia). Conditions: Sellmer et al. 2020; cited from earlier work.
The test system of data set [2] is MOLM-13 (acute myeloid leukemia). The conditions noted are these: Sellmer et al. 2020; cited from earlier work.
Data set [3] is described as follows: Solubility test by UV-Vis spectroscopy of saturated solutions. It counts as physicochemical. The conditions noted are these: for Solubility Ethanol [g/L] / Solubility Water [g/L]: saturated solution; for Solubility Water [g/L]: ultrapure water. The procedure, abridged:
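Solubility was measured by UV-Vis spectroscopy on an Agilent Cary 60 over 800-200 nm, using a scan rate of 300.0 nm/min, a 0.50 nm data interval, 0.10 s averaging time and a 10 mm cuvette. Filtered saturated supernatants were diluted into water:ethanol, read at the long-wave absorbance maximum against a calibration curve of at least 6 concentrations, in triplicate.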

The subject of data set [4] is subcutaneous MV4-11 CDX model. The data set is described as follows: In vivo efficacy study in subcutaneous MV4-11 CDX model in NOD/SCID mice. Conditions: 50 mg/kg po daily 5 days.
Data set [5] relates to subcutaneous MV4-11 CDX model. Conditions: female, NOD/SCID, mouse, in vivo, 5 days.
Data set [6] relates to MONO-MAC-6 (acute monocytic leukemia). Conditions: Sellmer et al. 2020; cited from earlier work.
The subject of data set [7] is MONO-MAC-1 (acute monocytic leukemia). Conditions: Sellmer et al. 2020; cited from earlier work.

SMILES strings stand for the structures. Values after ≈ are worked out from the molar mass of the structure shown.

As for `CC(C)(C)c1cc(NC(=O)Nc2ccc(-c3cn4c(n3)sc3cc(OCCN5CCOCC5)ccc34)cc2)no1` [Quizartinib, reference compound], in data set [1], the concentration for half-maximal inhibition (IC50) is 0.0001 µM. The IC50 in data set [2] was 0.007 µM. Also, the solubility in data set [3] (DMSO, organic solvent or mixture, solvent DMSO, read-out: Solubility DMSO) came out at 33.2 mg/mL (≈ 59.2 mM). Moreover, in data set [3], the “Solubility Ethanol [g/L]” value is recorded as “no or at most very poor solubility” and the “Solubility Water [g/L]” value is on record as “no or at most very poor solubility”. Also, in data set [3] (listed as AC220), the “Solubility Ethanol [g/L]” value was “Practical” and the “Solubility Water [g/L]” value was “Practical”. Moreover, the “first death(s) (day of study)” value in data set [4] was found to be 600000 s. In data set [4] (5 mice), the “number of living subjects, day of study 5” value is listed as 5; the “number of living subjects, day of study 6” value is given as 5; the “number of living subjects, day of study 8” value worked out at 3; the “number of living subjects, day of study 13” value was 3. Also, in data set [4] (5 mice), the “number of living subjects, day of study 26” value came out at 3 and the “number of living subjects, day of study 36” value came out at 3. The “study day after which mice had to be sacrificed” value in data set [5] was determined as 6 days. For the same molecule, the IC50 in data set [6] is 0.004 µM. Besides, the IC50 in data set [7] is 0.006 µM.

The values are drawn from patent publication US20260184702A1, “SYNTHESIS, PHARMACOLOGY AND USE OF NEW WATER-SOLUBLE AND SELECTIVE FMS-LIKE TYROSINE KINASE3 (FLT3) INHIBITORS” (Universität Regensburg, priority 2022, published 2026).
